Measurements: BigSolDB 2.1

CCOc1ccc(C=O)cc1O
solubility (mole fraction)
Settings	283.15 K	288.15 K	293.15 K	298.15 K	303.15 K	308.15 K	313.15 K	318.15 K	323.15 K
in THF	0.0523	0.0624	0.071	0.0842	0.094	0.108	0.123	0.138	0.156
in acetone	0.0425	0.0467	0.0515	0.057	0.0652	0.0718	0.0819	0.092	0.114
in acetonitrile	0.0105	0.0133	0.015	0.0191	0.0228	0.0285	0.0353	0.0406	0.0551
in ethanol	0.0066	0.0078	0.0101	0.012	0.0141	0.0179	0.0224	0.0276	0.0345
in ethyl acetate	0.0166	0.0194	0.0212	0.0259	0.0288	0.0361	0.0416	0.0511	0.0606
in ethyl formate	0.0135	0.0172	0.0196	0.0236	0.0278	0.0341	0.0415	0.0488	0.0605
in isopropanol	0.0035	0.005	0.0063	0.0082	0.01	0.0129	0.0168	0.0216	0.0277
in isopropyl acetate	0.013	0.0156	0.0187	0.0202	0.0227	0.0274	0.0325	0.0387	0.0457
in methanol	0.0072	0.0091	0.0119	0.0159	0.0206	0.0268	0.0362	0.0482	0.0635
in methyl acetate	0.0166	0.0205	0.0263	0.0301	0.0331	0.0409	0.048	0.0557	0.0678
in n-propanol	0.0048	0.0065	0.0077	0.0098	0.0118	0.0149	0.0194	0.0246	0.0312
in toluene	0.0032	0.0037	0.0042	0.0049	0.0057	0.0068	0.0077	0.0092	0.011
